Results reported in paper PMC11078746 (Nature, 2024).
“And” between values parts separate entries of the source, which are not always exact repeats. Identical values can stand only once.

How the values were obtained:
[1] = Mouse body weight, SW48 xenograft study with HRO761; type: in vivo; set-up: Body weight change, individual animals / Body weight change, group mean: unit not given here; conditions: for Body weight change, group mean / Body weight change, individual animals: SW48 xenograft-bearing mice
Procedure: All animal studies were conducted in accordance with ethics and procedures covered by permit BS-2275 and BS-1975 issued by the Kantonales Veterinäramt Basel-Stadt and in strict adherence to guidelines of the Eidgenössisches Tierschutzgesetz and the Eidgenössische Tierschutzverordnung, Switzerland. All animal studies were approved by the internal ethics committee. All animals had access to food and water ad libitum and were identified with transponders. They were housed in a specific-pathogen-free facility in IVC racks under a 12 h–12 h light–dark cycle. To establish cell-line-derived xenograft models, 6–7-week-old female athymic nude (Crl:NU(NCr)-Foxn1^nu) or SCID-BEIGE (CB17.Cg-PrkdcscidLystbg-J/Crl) mice from Charles River were engrafted subcutaneously with 5 million tumour cells in HBSS (H6648, Sigma-Aldrich). For SNU-407, Lovo, IM95, RL95.2, Ishikawa and IGROV-1, the cells were concentrated in 50% Matrigel (354234, Corning). Patient-derived xenografts were induced and expanded by transplantation as previously described. […] For the efficacy experiment, mice were randomized into groups (n = 5–6) for a mean tumour size of 100–150 mm^3. […] Blood samples were collected on day 7 and 91. […] Tumour responses are reported with the measures of tumour volumes from the treatment start. […] Animals were randomized (n = 3) and tumour samples were collected at 0, 1, 4, 8 and 24 h on the first day and then collected 4 h after the last treatment on day 3, 8, 10, 14 (including a 24 h timepoint), 17 and 21. Tumours were excised, weighed, either frozen in liquid nitrogen and cryogenic dry pulverized with the CryoPrep system (model CP-02, Covaris) or processed to FFPE after fixation. […] On day 12, blood samples were collected for PK analysis. On the last day (3 h after the last treatment), tumours were excised, weighed, frozen in liquid nitrogen and cryogenic dry pulverized for PD analysis.

[2] = system: CAL33; assay: CFA 10-14 day clonogenic assay; type: cell-based; conditions: Homo sapiens, CAL-33
[3] = HRO761 120mg/kg, day 0 post 1st dose

SMILES: CCc1c(N2CCN(C(=O)c3ncnc(C)c3O)CC2)c(=O)n2nc(C3=CCOCC3)nc2n1CC(=O)Nc1ccc(C(F)(F)F)cc1Cl [HRO761]
- Mean DBW ([1]; HRO761 60mg/kg, day 28 post 1st dose): 5.12%
- Mean DBW ([1]; HRO761 60mg/kg, day 31 post 1st dose): 5.38%
- Mean DBW ([1]; HRO761 60mg/kg, day 35 post 1st dose): 4.36%
- Mean DBW ([1]; HRO761 60mg/kg, day 38 post 1st dose): 2.35%
- Mean DBW ([1]; HRO761 60mg/kg, day 42 post 1st dose): 3.45%
- Mean DBW ([1]; HRO761 60mg/kg, day 45 post 1st dose): 2.45%
- Mean DBW ([1]; HRO761 60mg/kg, day 49 post 1st dose): 3.51%
- Mean DBW ([1]; HRO761 60mg/kg, day 52 post 1st dose): 2.35%
- Mean DBW ([1]; HRO761 60mg/kg, day 56 post 1st dose): 2.93%
- Mean DBW ([1]; HRO761 60mg/kg, day 59 post 1st dose): 4.86%
- Mean DBW ([1]; HRO761 60mg/kg, day 63 post 1st dose): 4.98%
- Mean DBW ([1]; HRO761 60mg/kg, day 66 post 1st dose): 5.96%
- Mean DBW ([1]; HRO761 60mg/kg, day 70 post 1st dose): 5.36%
- Mean DBW ([1]; HRO761 60mg/kg, day 73 post 1st dose): 5.45%
- Mean DBW ([1]; HRO761 60mg/kg, day 76 post 1st dose): 8.05%
- Mean DBW ([1]; HRO761 60mg/kg, day 79 post 1st dose): 6.02%
- Mean DBW ([1]; HRO761 60mg/kg, day 83 post 1st dose): 6.63%
- Mean DBW ([1]; HRO761 60mg/kg, day 86 post 1st dose): 7.71%
- Delta BW change, individual mouse [1, 3]: 0%
- Mean DBW [1, 3]: 0.00%
- Mean DBW ([1]; HRO761 120mg/kg, day 3 post 1st dose): -2.05%
- Delta BW change, individual mouse ([1]; HRO761 120mg/kg, day 3 post 1st dose, 120 mg/kg): -1.24% and 0% and -5.24% and -5.96% and 2.18%
- Mean DBW ([1]; HRO761 120mg/kg, day 7 post 1st dose): 0.64%
- Delta BW change, individual mouse ([1]; HRO761 120mg/kg, day 7 post 1st dose, 120 mg/kg): 0% (2×) and 3.8% and -3.23% and 2.62%
- Mean DBW ([1]; HRO761 120mg/kg, day 10 post 1st dose): 0.034%
- Delta BW change, individual mouse ([1]; HRO761 120mg/kg, day 10 post 1st dose, 120 mg/kg): 2.07% and 3.8% and -2.42% and -4.59% and 1.31%
- Mean DBW ([1]; HRO761 120mg/kg, day 14 post 1st dose): 1.43%
- Delta BW change, individual mouse ([1]; HRO761 120mg/kg, day 14 post 1st dose, 120 mg/kg): 4.15% and 4.56% and -2.82% and -0.92% and 2.18%
- Mean DBW ([1]; HRO761 120mg/kg, day 17 post 1st dose): 1.14%
- Mean DBW ([1]; HRO761 120mg/kg, day 21 post 1st dose): 5.29%
- Mean DBW ([1]; HRO761 120mg/kg, day 24 post 1st dose): 6.66%
- Mean DBW ([1]; HRO761 120mg/kg, day 28 post 1st dose): 5.89%
- Mean DBW ([1]; HRO761 120mg/kg, day 31 post 1st dose): 6.52%
- Mean DBW ([1]; HRO761 120mg/kg, day 35 post 1st dose): 7.34%
- Mean DBW ([1]; HRO761 120mg/kg, day 38 post 1st dose): 4.89%
- Mean DBW ([1]; HRO761 120mg/kg, day 42 post 1st dose): 6.61%
- Mean DBW ([1]; HRO761 120mg/kg, day 45 post 1st dose): 7.02%
- Mean DBW ([1]; HRO761 120mg/kg, day 49 post 1st dose): 8.54%
- Mean DBW ([1]; HRO761 120mg/kg, day 52 post 1st dose): 5.69%
- Mean DBW ([1]; HRO761 120mg/kg, day 56 post 1st dose): 7.31%
- Mean DBW ([1]; HRO761 120mg/kg, day 59 post 1st dose): 8.08%
- Mean DBW ([1]; HRO761 120mg/kg, day 63 post 1st dose): 9.90%
- Mean DBW ([1]; HRO761 120mg/kg, day 66 post 1st dose): 9.60%
- Mean DBW ([1]; HRO761 120mg/kg, day 70 post 1st dose): 9.57%
- Mean DBW ([1]; HRO761 120mg/kg, day 73 post 1st dose): 7.95%
- Mean DBW ([1]; HRO761 120mg/kg, day 76 post 1st dose): 11.43%
- Mean DBW ([1]; HRO761 120mg/kg, day 79 post 1st dose): 9.25%
- Mean DBW ([1]; HRO761 120mg/kg, day 83 post 1st dose): 10.23%
- Mean DBW ([1]; HRO761 120mg/kg, day 86 post 1st dose): 9.35%
- Body weight change, group mean ([1]; HRO761 40mg/kg, day 90 post 1st dose): 13.42
- Body weight change, individual animals ([1]; HRO761 40mg/kg, day 90 post 1st dose, 40 mg/kg): 12.73 and 18.18 and 7.58 and 10.23 and 18.39
- Body weight change, group mean ([1]; HRO761 40mg/kg, day 92 post 1st dose): 10.60
- Body weight change, individual animals ([1]; HRO761 40mg/kg, day 92 post 1st dose, 40 mg/kg): 10.45 and 10.82 and 5.05 and 12.5 and 14.18
- Body weight change, group mean ([1]; HRO761 60mg/kg, day 90 post 1st dose): 7.89
- Body weight change, individual animals ([1]; HRO761 60mg/kg, day 90 post 1st dose, 60 mg/kg): 7.66 and 9.39 and 10.88 and 1.67 and 9.83
- Body weight change, group mean ([1]; HRO761 60mg/kg, day 92 post 1st dose): 5.46
- Body weight change, individual animals ([1]; HRO761 60mg/kg, day 92 post 1st dose, 60 mg/kg): 5.11 and 6.53 and 6.69 and 0.42 and 8.55
- Body weight change, group mean ([1]; HRO761 120mg/kg, day 90 post 1st dose): 10.59
- Body weight change, individual animals ([1]; HRO761 120mg/kg, day 90 post 1st dose, 120 mg/kg): 9.96 and 14.07 and 7.66 and 5.96 and 15.28
- Body weight change, group mean ([1]; HRO761 120mg/kg, day 92 post 1st dose): 7.50
- Body weight change, individual animals ([1]; HRO761 120mg/kg, day 92 post 1st dose, 120 mg/kg): 5.81 and 9.13 and 4.84 and 5.5 and 12.23
- toxicity inferred from animal weight ([1]; doses up to 120 mg per kg): did not cause toxicity
- GI50 [2]: ≥ 10 µM
